Earlier results as cited in patent US20110082200A1, “5,6,7-TRIHYDROXYHEPTANOIC ACID AND ANALOGS FOR THE TREATMENT OF OCULAR DISEASES AND DISEASES ASSOCIATED WITH HYPERPROLIFERATIVE AND ANGIOGENIC RESPONSES” (ALCON, INC., priority 2004, published 2011).

What was measured:
endothelial cell [1] = settings: in vitro
endothelial cell [2] = settings: in vitro; remark: listed apart in the source
[3] = system: VEGF-induced angiogenesis; settings: murine chronic granulomatous air pouch model
neutrophils = settings: compared with lipoxin A4

For `O=C(O)CCC[C@H](O)[C@H](O)/C=C/C=C/C=C\C=C\[C@H](O)COc1ccc(F)cc1` [Lipoxin analog 3], the “inhibition of VEGF-induced endothelial cell chemotaxis and proliferation” value (endothelial cell [1]) is given as “inhibit”, the “inhibition of leukotriene D4-induced endothelial cell chemotaxis and proliferation” value (endothelial cell [2]) is given as “inhibit” and the “inhibition of VEGF-induced angiogenesis” value [3] is given as “inhibit”.
In the case of `CCCCC[C@H](O)[C@H](O)CO` [Compound 2], the “inhibition of LTB4-induced chemotaxis of neutrophils” value (neutrophils) is given as “as potently as lipoxin A4”.
For `COC(=O)CCC[C@H](O)[C@H](O)CO` [Compound 1], the “inhibition of LTB4-induced chemotaxis of neutrophils” value (neutrophils) is listed as “as potently as lipoxin A4”.
